Experimental data taken from US20020169111A1, “Reversal of multidrug resistance in human colon carcinoma cells” (American Cyanamid Comany, priority 1998, published 2002).
Like-named read-outs stand apart in the source and are kept apart here.

What was measured:
S1-M1-3.2 cells [1] = details: for concentration giving 40% cell death (compound alone) / activity in the reversal assay compared to FTC, fold lower / Per Cent Survival with 3.2 μM mitoxantrone / Per Cent Survival Alone / Difference Score: S1-M1-3.2 cells; for activity in the reversal assay compared to FTC, fold lower: Table 7 versus Table 8; for Per Cent Survival Alone: 3 days; for Difference Score: survival alone minus survival with 3.2 μM mitoxantrone; for Toxicity (>20%): compound alone, concentration that causes greater than 20% cell death of S1-M1-3.2 cells; for IC50: read-out: IC50 (μM), resensitizing S1-M1-3.2 cells to mitoxantrone, with 3.2 μM mitoxantrone, 50% cancer cell death
Description: One of the first reported molecules with reversing activity was verapamil, a calcium channel blocker. […] Cells were plated into 96-well dishes (100 μl/well) in growth medium supplemented with 5% FBS. […] Reversal agents were tested from 0.1-80 μM (triplicate points per dose). In parallel wells, cells were grown in the presence of the reversal agent alone.
The Difference Score is the difference in the percentage of cells surviving when the drug was given alone minus the percentage of cells surviving when the drug was given along with the antitumor agent.
Cell survival was estimated using the Sulforhodamine (SRB) assay.

S1-M1-3.2 cells [2] = assay: Cytotoxicity of antitumor agents, 3-day SRB assay, mitoxantrone-selected cells; format: cell-based, human; details: relative to S1; 2-7 independent experiments
Description: Cells were cultured for three days in the presence of the antitumor agent (triplicate points per dose). Following a 3-day growth period, cells were fixed in 10% trichloroacetic acid (TCA) for 1 hour, washed extensively with water, and cell-associated protein was stained using 0.1% sulforhodamine B (SRB), a protein binding reagent [Rubinstein et al., Journal of the National Cancer Institute 82, 1113-1118 (1990) and Skehan et al., Journal of the National Cancer Institute 82, 1107-1112 (1990)]. Excess reagent was removed by washing plates in 5% acetic acid, the dye was solubilized in 10 mM Tris base, and absorbance determined in a UV Max spectrophotometer (Molecular Devices, Menlo Park, Calif.) at 540 nm. Cell survival was estimated relative to control wells (no drugs). EC50 values (μM) were estimated from cytotoxicity curves. For S1, the values shown [mean ±SE (number of independent observations)] are taken from Zhang et al., “P-Glycoprotein Mediates Profound Resistance to Bisantrene,” Oncol. Res., 6:291-301, 1994. Values for S1-M1-3.2 are compiled from 2-7 independent experiments.

SMILES	Per Cent Survival with 3.2 μM mitoxantrone (S1-M1-3.2 cells [1]; drug 0.1 μM) [Per Cent]	Per Cent Survival Alone (S1-M1-3.2 cells [1]; drug 0.1 μM alone) [Per Cent]	Per Cent Survival with 3.2 μM mitoxantrone (S1-M1-3.2 cells [1]; drug 0.5 μM) [Per Cent]	Per Cent Survival Alone (S1-M1-3.2 cells [1]; drug 0.5 μM alone) [Per Cent]	Per Cent Survival with 3.2 μM mitoxantrone (S1-M1-3.2 cells [1]; drug 1 μM) [Per Cent]	Per Cent Survival Alone (S1-M1-3.2 cells [1]; drug 1 μM alone) [Per Cent]	Per Cent Survival with 3.2 μM mitoxantrone (S1-M1-3.2 cells [1]; drug 5 μM) [Per Cent]	Per Cent Survival Alone (S1-M1-3.2 cells [1]; drug 5 μM alone) [Per Cent]	Per Cent Survival with 3.2 μM mitoxantrone (S1-M1-3.2 cells [1]; drug 10 μM) [Per Cent]	Per Cent Survival Alone (S1-M1-3.2 cells [1]; drug 10 μM alone) [Per Cent]	Per Cent Survival with 3.2 μM mitoxantrone (S1-M1-3.2 cells [1]; drug 20 μM) [Per Cent]	Per Cent Survival Alone (S1-M1-3.2 cells [1]; drug 20 μM alone) [Per Cent]	Per Cent Survival with 3.2 μM mitoxantrone (S1-M1-3.2 cells [1]; drug 40 μM) [Per Cent]	Per Cent Survival Alone (S1-M1-3.2 cells [1]; drug 40 μM alone) [Per Cent]	Per Cent Survival with 3.2 μM mitoxantrone (S1-M1-3.2 cells [1]; drug 80 μM) [Per Cent]	Per Cent Survival Alone (S1-M1-3.2 cells [1]; drug 80 μM alone) [Per Cent]	S1-M1-3.2 (relative resistance) (S1-M1-3.2 cells [2])	other results
COc1ccc2c3c4n(c2c1)[C@@H](C=C(C)C)OOC(C)(C)C[C@@H]4N1C(=O)[C@@H]2CCCN2C(=O)[C@]1(O)[C@H]3OCC=C(C)C [Fumitremorgin A]	96 ± 2	95 ± 1	95 ± 4	96 ± 2	94 ± 5	96 ± 1	64 ± 4	96 ± 1	40 ± 6	89 ± 9	35 ± 5	59 ± 4	34 ± 4	50 ± 8	34 ± 4	41 ± 8	–	concentration giving 40% cell death (compound alone) (S1-M1-3.2 cells [1]): 20 µM; activity in the reversal assay compared to FTC, fold lower (S1-M1-3.2 cells [1]): 20 fold; Difference Score (S1-M1-3.2 cells [1]; drug 0.1 μM): −1; Difference Score (S1-M1-3.2 cells [1]; drug 0.5 μM): 1; Difference Score (S1-M1-3.2 cells [1]; drug 1 μM): 2; Difference Score (S1-M1-3.2 cells [1]; drug 5 μM): 32; Difference Score (S1-M1-3.2 cells [1]; drug 10 μM): 49; Difference Score (S1-M1-3.2 cells [1]; drug 20 μM): 24; Difference Score (S1-M1-3.2 cells [1]; drug 40 μM): 16; Difference Score (S1-M1-3.2 cells [1]; drug 80 μM): 7; Toxicity (>20%) (S1-M1-3.2 cells [1]): 15.0 µM; IC50 (S1-M1-3.2 cells [1]): 7 µM
COc1ccc2c3c(n(CC=C(C)C)c2c1)[C@H](C=C(C)C)N1C(=O)[C@@H]2CCCN2C(=O)[C@]1(O)[C@H]3O [Fumitremorgin B]	91 ± 5	94 ± 1	90 ± 3	95 ± 2	87 ± 1	93 ± 0	51 ± 4	90 ± 2	35 ± 1	91 ± 4	29 ± 1	59 ± 10	20 ± 2	41 ± 7	10 ± 1	16 ± 2	–	concentration giving 40% cell death (compound alone) (S1-M1-3.2 cells [1]): 20 µM; activity in the reversal assay compared to FTC, fold lower (S1-M1-3.2 cells [1]): 14 fold; Difference Score (S1-M1-3.2 cells [1]; drug 0.1 μM): 3; Difference Score (S1-M1-3.2 cells [1]; drug 0.5 μM): 5; Difference Score (S1-M1-3.2 cells [1]; drug 1 μM): 6; Difference Score (S1-M1-3.2 cells [1]; drug 5 μM): 39; Difference Score (S1-M1-3.2 cells [1]; drug 10 μM): 56; Difference Score (S1-M1-3.2 cells [1]; drug 20 μM): 30; Difference Score (S1-M1-3.2 cells [1]; drug 40 μM): 21; Difference Score (S1-M1-3.2 cells [1]; drug 80 μM): 6; Toxicity (>20%) (S1-M1-3.2 cells [1]): 15.0 µM; IC50 (S1-M1-3.2 cells [1]): 5 µM
COc1cc([C@@H]2c3cc4c(cc3[C@@H](O[C@@H]3O[C@@H]5CO[C@@H](c6cccs6)O[C@H]5[C@H](O)[C@H]3O)[C@H]3COC(=O)[C@H]23)OCO4)cc(OC)c1O [VM-26, teniposide]	–	–	–	–	–	–	–	–	–	–	–	–	–	–	–	–	18	–
COc1ccc(CCN(C)CCCC(C#N)(c2ccc(OC)c(OC)c2)C(C)C)cc1OC (stereo not drawn) [Verapamil, reference compound]	98 ± 0	100 ± 1	98 ± 1	99 ± 1	98 ± 1	97 ± 2	97 ± 0	98 ± 5	94 ± 0	103 ± 4	93 ± 2	99 ± 4	83 ± 3	93 ± 6	58 ± 4	80 ± 24	–	reversal activity in S1-M1-3.2 cells (in words) (S1-M1-3.2 cells [1]): not reversed
C(=N\NC1=NCCN1)/c1c2ccccc2c(/C=N/NC2=NCCN2)c2ccccc12 [bisantrene]	–	–	–	–	–	–	–	–	–	–	–	–	–	–	–	–	24	–
COc1cc([C@@H]2c3cc4c(cc3[C@@H](O[C@@H]3O[C@@H]5CO[C@@H](C)O[C@H]5[C@H](O)[C@H]3O)[C@H]3COC(=O)[C@H]23)OCO4)cc(OC)c1O [etoposide]	–	–	–	–	–	–	–	–	–	–	–	–	–	–	–	–	6	–
COc1cc(NS(C)(=O)=O)ccc1Nc1c2ccccc2nc2ccccc12 [m-AMSA]	–	–	–	–	–	–	–	–	–	–	–	–	–	–	–	–	11	–
CC[C@]1(O)C[C@@H]2CN(CCc3c([nH]c4ccccc34)[C@@](C(=O)OC)(c3cc4c(cc3OC)N(C)[C@H]3[C@@](O)(C(=O)OC)[C@H](OC(C)=O)[C@]5(CC)C=CCN6CC[C@]43[C@@H]65)C2)C1 [vinblastine]	–	–	–	–	–	–	–	–	–	–	–	–	–	–	–	–	3	–
